Values joined by “and” are separate entries in the source; they are usually repeats but may differ in a detail not shown here. Equal values may be shown once. Toxic doses and inconclusive results are not listed. Cut-off read from the data, not from the text of the source: active = T/C of 150% or more; inactive = T/C below 125%.
Test system: L1210 leukemia ip in BDF1 mice, survival T/C
Assay: NCI In Vivo Anticancer Drug Screen. Data for tumor model L1210 Leukemia (intraperitoneal) in B6D2F1 (BDF1) mice
Settings: endpoint: mean survival time, higher = longer survival
Procedure, shortened: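 Mice bearing the transplanted tumor received compound or vehicle. Survival of the treated group was divided by that of the vehicle-treated control group to give the ratio.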

[1] = dose: 100.0 mg/kg/injection, schedule: Q04DX002 (ip), vehicle: saline with Tween-80
[2] = dose: 200.0 mg/kg/injection, schedule: Q04DX002 (ip), vehicle: saline with Tween-80
[3] = dose: 400.0 mg/kg/injection, schedule: Q04DX002 (ip), vehicle: saline with Tween-80
[4] = dose: 50.0 mg/kg/injection, schedule: Q01DX009 (ip), vehicle: saline with Tween-80
[5] = dose: 100.0 mg/kg/injection, schedule: Q01DX009 (ip), vehicle: saline with Tween-80
[6] = dose: 200.0 mg/kg/injection, schedule: Q01DX009 (ip), vehicle: saline with Tween-80
[7] = dose: 200.0 mg/kg/injection, schedule: Q01DX001 (ip), vehicle: saline
[8] = dose: 100.0 mg/kg/injection, schedule: Q04DX003 (ip), vehicle: saline with Tween-80
[9] = dose: 200.0 mg/kg/injection, schedule: Q04DX003 (ip), vehicle: saline with Tween-80
[10] = dose: 400.0 mg/kg/injection, schedule: Q04DX003 (ip), vehicle: saline with Tween-80
[11] = dose: 100.0 mg/kg/injection, schedule: Q01DX001 (ip), vehicle: saline

Measured: T/C

CC/C=C(\CCC)CCCC
inactive: [1] 94 % of control | [2] 97 % of control | [3] 94 % of control

COc1ccccc1C1CCCCC1OS(C)(=O)=O (centres undefined)
inactive: dose: 100.0 mg/kg/injection, schedule: Q01DX001 (ip), vehicle: carboxymethylcellulose (CMC) 103 % of control | dose: 200.0 mg/kg/injection, schedule: Q01DX001 (ip), vehicle: carboxymethylcellulose (CMC) 111 % of control | dose: 400.0 mg/kg/injection, schedule: Q01DX001 (ip), vehicle: carboxymethylcellulose (CMC) 92 % of control

Cc1cc(OCCOC(=O)Nc2ccc(C)c([N+](=O)[O-])c2)ccc1Cl
inactive: [4] 93 % of control | [5] 87 % of control | [6] 87 % of control

COc1cc(/C=N\NC(=S)Nc2ccc(S(=O)(=O)N3CCCCC3)cc2)cc(OC)c1OC
inactive: [1] 98 % of control | [2] 103 % of control | [3] 90 % of control

Cc1ccc(S(=O)(=O)/C(Cl)=C(/Cl)S(=O)(=O)c2ccc(C)cc2)cc1
inactive: dose: 3.12 mg/kg/injection, schedule: Q01DX009 (ip), vehicle: saline 95 % of control | dose: 6.25 mg/kg/injection, schedule: Q01DX009 (ip), vehicle: saline 97 % of control | dose: 6.25 mg/kg/injection, schedule: Q04DX003 (ip), vehicle: saline 88 % of control | dose: 12.5 mg/kg/injection, schedule: Q01DX001 (ip), vehicle: saline 94 % of control | dose: 12.5 mg/kg/injection, schedule: Q01DX009 (ip), vehicle: saline with Tween-80 95 % of control | dose: 12.5 mg/kg/injection, schedule: Q04DX003 (ip), vehicle: saline 92 % of control | dose: 25.0 mg/kg/injection, schedule: Q01DX001 (ip), vehicle: saline 92 % of control | dose: 25.0 mg/kg/injection, schedule: Q01DX009 (ip), vehicle: saline with Tween-80 89 % of control | [7] 103 % of control

Cc1n(CC(C)C)c2c([n+]1CC(=O)c1ccc([N+](=O)[O-])cc1)C(=O)c1ccccc1C2=O
inactive: dose: 5.0 mg/kg/injection, schedule: Q01DX001 (ip), vehicle: carboxymethylcellulose (CMC) 93 % of control | dose: 10.0 mg/kg/injection, schedule: Q01DX001 (ip), vehicle: carboxymethylcellulose (CMC) 86 % of control | dose: 20.0 mg/kg/injection, schedule: Q01DX001 (ip), vehicle: carboxymethylcellulose (CMC) 97 % of control

CCCCCCCCCCCCCCCCOCCCCCCCCCCCCCCCC
inactive: dose: 100.0 mg/kg/injection, schedule: Q01DX009 (ip), vehicle: Klucel (hydroxypropylcellulose) (HPC) 96 % of control | dose: 100.0 mg/kg/injection, schedule: Q04DX003 (ip), vehicle: other 103 % of control | dose: 200.0 mg/kg/injection, schedule: Q01DX009 (ip), vehicle: Klucel (hydroxypropylcellulose) (HPC) 100 % of control | dose: 200.0 mg/kg/injection, schedule: Q04DX003 (ip), vehicle: other 88 % of control | dose: 400.0 mg/kg/injection, schedule: Q01DX009 (ip), vehicle: Klucel (hydroxypropylcellulose) (HPC) 91 % of control | dose: 400.0 mg/kg/injection, schedule: Q04DX003 (ip), vehicle: other 95 % of control

CC1(C)CC(C(N)=O)C(=O)O1 (centres undefined)
inactive: [8] 101 % of control | [9] 103 % of control | [10] 101 % of control

CCn1c(=S)[nH]c(/C=N/N(CCO)CCO)c(C)c1=O
inactive: dose: 100.0 mg/kg/injection, schedule: Q01DX001 (ip), vehicle: saline with Tween-80 103 % of control | dose: 200.0 mg/kg/injection, schedule: Q01DX001 (ip), vehicle: saline with Tween-80 103 % of control | dose: 400.0 mg/kg/injection, schedule: Q01DX001 (ip), vehicle: saline with Tween-80 95 % of control

Nc1ncnc2c1ncn2C1OCC(O)C1CO (centres undefined)
inactive: dose: 50.0 mg/kg/injection, schedule: Q01DX001 (ip), vehicle: saline 111 % of control | [11] 109 % of control | [7] 105 % of control

O=C(O)C1C2CC3OC(=O)C1C3C2 (centres undefined)
inactive: [11] 93 % of control | dose: 100.0 mg/kg/injection, schedule: Q01DX009 (ip), vehicle: saline 98 % of control | [8] 91 % of control | dose: 100.0 mg/kg/injection, schedule: Q04DX003 (ip), vehicle: saline 97 % of control and 98 % of control | [7] 94 % of control | dose: 200.0 mg/kg/injection, schedule: Q01DX009 (ip), vehicle: saline 87 % of control | [9] 94 % of control | dose: 200.0 mg/kg/injection, schedule: Q04DX003 (ip), vehicle: saline 95 % of control and 100 % of control | dose: 400.0 mg/kg/injection, schedule: Q01DX001 (ip), vehicle: saline 100 % of control | dose: 400.0 mg/kg/injection, schedule: Q01DX009 (ip), vehicle: saline 87 % of control | [10] 104 % of control | dose: 400.0 mg/kg/injection, schedule: Q04DX003 (ip), vehicle: saline 98 % of control and 115 % of control

CCCCCCCCCCOc1ccc(OC)cc1
inactive: dose: 100.0 mg/kg/injection, schedule: Q04DX002 (ip), vehicle: other 103 % of control | dose: 200.0 mg/kg/injection, schedule: Q04DX002 (ip), vehicle: other 95 % of control | dose: 400.0 mg/kg/injection, schedule: Q04DX002 (ip), vehicle: other 106 % of control

COC(=O)C1C(O)C(C)C(O)C(C)/C=C\C=C(C)C(=O)Nc2c(C)c(OC(C)=O)c3c(c2O)C(=O)C(C)=C2OCOC(=C23)C(C)=CC(C)(O)C(O)C(C)C1O (centres undefined)
inactive: dose: 100.0 mg/kg/injection, schedule: Q04DX002 (ip), vehicle: Klucel (hydroxypropylcellulose) (HPC) 104 % of control | dose: 200.0 mg/kg/injection, schedule: Q04DX002 (ip), vehicle: Klucel (hydroxypropylcellulose) (HPC) 101 % of control | dose: 400.0 mg/kg/injection, schedule: Q04DX002 (ip), vehicle: Klucel (hydroxypropylcellulose) (HPC) 90 % of control

OC(C1CC2CCC1C2)(C1CC2CCC1C2)C1CC2CCC1C2 (centres undefined)
inactive: [5] 92 % of control | dose: 100.0 mg/kg/injection, schedule: Q04DX003 (ip), vehicle: Klucel (hydroxypropylcellulose) (HPC) 94 % of control | [6] 97 % of control | dose: 200.0 mg/kg/injection, schedule: Q04DX003 (ip), vehicle: Klucel (hydroxypropylcellulose) (HPC) 96 % of control | dose: 400.0 mg/kg/injection, schedule: Q01DX009 (ip), vehicle: saline with Tween-80 90 % of control | dose: 400.0 mg/kg/injection, schedule: Q04DX003 (ip), vehicle: Klucel (hydroxypropylcellulose) (HPC) 97 % of control

CC(=O)Cc1cc(=O)[nH]c(=S)[nH]1
inactive: [4] 95 % of control | [5] 92 % of control | [6] 92 % of control

CN(Cc1ccccc1O)C1CCCCC1
inactive: dose: 75.0 mg/kg/injection, schedule: Q01DX001 (ip), vehicle: saline 95 % of control

CCN(CCO)CC1C(c2ccccc2)C1c1ccccc1 (centres undefined)
inactive: dose: 12.5 mg/kg/injection, schedule: Q04DX002 (ip), vehicle: Klucel (hydroxypropylcellulose) (HPC) 93 % of control | dose: 25.0 mg/kg/injection, schedule: Q04DX002 (ip), vehicle: Klucel (hydroxypropylcellulose) (HPC) 90 % of control | dose: 50.0 mg/kg/injection, schedule: Q04DX002 (ip), vehicle: Klucel (hydroxypropylcellulose) (HPC) 90 % of control

O=C(O)CCCCCCCCCCN1C(=O)c2cccc([N+](=O)[O-])c2C1=O
inactive: dose: 87.5 mg/kg/injection, schedule: Q04DX003 (ip), vehicle: carboxymethylcellulose (CMC) 101 % of control | dose: 175.0 mg/kg/injection, schedule: Q04DX003 (ip), vehicle: carboxymethylcellulose (CMC) 97 % of control | dose: 350.0 mg/kg/injection, schedule: Q04DX003 (ip), vehicle: carboxymethylcellulose (CMC) 87 % of control

CCOC(=O)CNC(=O)Nc1ccccc1F
inactive: dose: 50.0 mg/kg/injection, schedule: Q01DX009 (ip), vehicle: gum acacia 93 % of control and 97 % of control | dose: 100.0 mg/kg/injection, schedule: Q01DX001 (ip), vehicle: gum acacia 101 % of control and 102 % of control | dose: 100.0 mg/kg/injection, schedule: Q04DX002 (ip), vehicle: gum acacia 96 % of control and 97 % of control | dose: 100.0 mg/kg/injection, schedule: Q04DX003 (ip), vehicle: gum acacia 94 % of control and 108 % of control | dose: 200.0 mg/kg/injection, schedule: Q01DX001 (ip), vehicle: gum acacia 100 % of control and 102 % of control | dose: 200.0 mg/kg/injection, schedule: Q04DX002 (ip), vehicle: gum acacia 93 % of control and 94 % of control | dose: 200.0 mg/kg/injection, schedule: Q04DX003 (ip), vehicle: gum acacia 94 % of control and 101 % of control | dose: 400.0 mg/kg/injection, schedule: Q01DX001 (ip), vehicle: gum acacia 95 % of control and 105 % of control | dose: 400.0 mg/kg/injection, schedule: Q01DX009 (ip), vehicle: gum acacia 90 % of control and 91 % of control | dose: 400.0 mg/kg/injection, schedule: Q04DX002 (ip), vehicle: gum acacia 96 % of control and 87 % of control | dose: 400.0 mg/kg/injection, schedule: Q04DX003 (ip), vehicle: gum acacia 95 % of control and 96 % of control

Source: PubChem BioAssay AID248 (DTP/NCI, 2004)
